Data as given in patent US6214816A, “Heterocyclic compounds” (Novo Nordisk A/S, priority 1998, dated 2001).
Counter-ions that a name gives are not always drawn.

Tested on: histamine induced paw oedema
Test: Histamine induced paw oedema
Format: in vivo, rat (male Sprague-Dawley)
Conditions: ip, intraperitoneally 15 minutes before the anaesthetics, paw swelling 20 minutes after histamine, rat
Procedure: Compounds of formula I may be used to treat all painful, hyperalgesic and/or inflammatory conditions in which C-fibres play a pathophysiological role by eliciting neurogenic pain or inflammation, i.e.: The rat histamine paw oedema test was performed essentially as described by Amann et al. (Europ. J. Pharmacol. 279, 227-231, 1995). In brief 250-300 g male Sprague-Dawley rats were anaesthetized with pentobarbital sodium, and placed on a 32 degree Celsius heated table. Ten minutes later histamine (50 micoliter, 3 mg/ml) was injected in the right hind paw and 20 minutes hereafter the paw swelling was determined by water plethysmography (Ugo Basile). Test compounds were administered intraperitoneally at 15 minutes before the anaesthetics.

Question: Which inhibition at 1 mg/kg does the source give for `O=C(O)CCN1CCC(CN2c3ccccc3CCc3ccccc32)C1` (stereo not shown) [Example 1, 3-(3-(10,11-Dihydro-5H-dibenzo[b,f]azepin-5-ylmethyl)-pyrrolidin-1-yl)-propionic acid hydrochloride] here?
Answer: 56%
